What all share (type): cell-based
Holding throughout (set-up): expressed in transfected cells; host or cells: HEK293 cells transfected with VIPR2 in pCDNA3.1 (as described)

Assay [1] has as its target T1, VIPR2 (Homo sapiens, UniProt P41587).
T1 sequence (P41587 24-438): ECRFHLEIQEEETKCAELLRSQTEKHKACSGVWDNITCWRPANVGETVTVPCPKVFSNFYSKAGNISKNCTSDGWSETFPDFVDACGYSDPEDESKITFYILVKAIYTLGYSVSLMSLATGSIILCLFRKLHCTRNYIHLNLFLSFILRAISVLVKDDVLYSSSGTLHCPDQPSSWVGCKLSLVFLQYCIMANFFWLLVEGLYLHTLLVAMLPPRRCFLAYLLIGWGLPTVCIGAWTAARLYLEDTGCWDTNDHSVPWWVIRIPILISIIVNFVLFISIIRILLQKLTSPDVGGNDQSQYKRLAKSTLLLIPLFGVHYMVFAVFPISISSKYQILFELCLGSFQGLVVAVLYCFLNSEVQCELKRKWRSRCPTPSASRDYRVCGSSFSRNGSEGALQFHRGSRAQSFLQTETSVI
Description: Inhibition of VIP-induced β-arrestin recruitment (% Activity Arrestin). From the text:
(§1) In a further non-limiting embodiment of the invention, the ability of a compound to inhibit VIPR2 GPCR activity may be tested, for example, using the PathHunter® eXpress β-Arrestin GPCR system (Discoverx Corporation, Fremont, Calif., US), as used by Chu et al., 2010, Molecular Pharmacol. 7795-101. In this assay, β-Arrestin is fused to the “Enzyme Acceptor” (“EA”), an N-terminal deletion mutant of β-gal, and the GPCR of interest is fused to a smaller (42 amino acids), weakly complementing portion of the β-gal enzyme (termed “ProLink™”). In cells that stably express these fusion proteins, the interaction of β-Arrestin and the GPCR following ligand stimulation forces the complementation of the two β-gal fragments resulting in the formation of a functional enzyme that converts substrate to detectable signal. In the absence of an interaction between the GPCR and β-Arrestin, the enzyme activity is low due to the low affinity of the two enzyme fragments. For example, a nucleic acid encoding VIPR2, for example hVIPR2, may be cloned into the ProLink vector (DiscoveRx) for GPCR-ProLink fusion protein production. Parental HEK293 cells that stably express β-arrestin2-β-gal-EA fusion protein (DiscoveRx) may be detached and transiently transfected with the VIPR2-containing vector using Fugene6 transfection reagent in suspension mode. Transfected cells in assay medium may be plated into test plates, for example at 15,000 cells/25 μl/well. After overnight incubation, 500 nl of an inhibitor or test inhibitor may be introduced into the test plate followed by 2 h incubation at 37° C., 5% CO2. Flash detection reagents may be added at 12.5 μl/well. After 5 min to 1 h of room-temperature incubation, the cell plates may be read on CLIPR (PerkinElmer Life and Analytical Sciences)or Acquest (Molecular Devices, Sunnyvale, Calif.) for luminescence signal.
(§2) A series of compounds were prepared using a synthetic method analogous to that set forth in Scheme 1, above, and then tested for their ability to inhibit VIP-induced cAMP elevation and β-arrestin recruitment.
(§3) A series of compounds were prepared using a synthetic method analogous to that set forth in Scheme 1, above, and then tested for their ability to inhibit VIP-induced cAMP elevation and β-arrestin recruitment, as described herein (Discoverx Corporation, Fremont, Calif., US). Compound activities were also tested in a BRET-based assay, as described herein. The results are shown below in Tables 1-4, above.

Assay [2] has as its target T1, VIPR2. Description: Inhibition of VIP-induced cAMP elevation (% Activity cAMP).
Source text: (§4) In a further non-limiting embodiment of the invention, the ability of a compound to inhibit VIPR2 and thereby […] a VIP-induced increase in cAMP may be measured using a Homogeneous Time-Resolved Fluorescence (“HTRF® assay; Cisbio Bioassays) as used in Chu et al., 2010, Molecular Pharmacol. 7795-101. In a method as used in Chu et al., 2010, Molecular Pharmacol. 7795-101, HEK293 cells may be transfected with nucleic acid encoding VIPR2, for example human VIPR2 (“hVIPR2”), for example comprised in a vector such as pCDNA3.1 vector. Successful transformants may then be selected, for example using 800 μg/ml G418. Clonal stable cell lines may then be generated by limited dilution to single cells and then may be clonally expanded and tested for VIP -dependent cAMP response. For the cAMP assay, about 3000-15,000 cells (in about 4-25 μl) may be placed in a well of an assay plate. The next day, inhibitor or test inhibitor and VIP may be added in a volume about 1-2 percent of the initial volume. Assay plates may then be returned to a cell incubator for 30 min before addition of a one-half volume of cAMP conjugate and, relative to the amount of cAMP conjugate, an equal volume of anti-cAMP conjugate (Cisbio). After at least 1 h of room-temperature incubation, HTRF signal may be read, for example using Viewlux or EnVision (PerkinElmer Life and Analytical Sciences, Waltham, Mass.). The ratio of […] at 665 nm and 620 nm times 10,000 may be calculated and plotted.
as §2, §3

Assay [3] has as its target T1, VIPR2. Description: % Activity: inhibition of VIP-induced cAMP elevation and β-arrestin recruitment (Table 2).
Source text: as §4, §1, §3

Each structure is given as a SMILES string.

14 compounds from patent US20150239831A1, “INHIBITORS OF CENTRAL NERVOUS SYSTEM VASOACTIVE INHIBITORY PEPTIDE RECEPTOR 2” (The Trustees Of Columbia University In The City Of New York, priority 2012, published 2015) can be followed below.

Regarding `O=C(NC1CCCc2ccccc21)[C@H](Cc1ccccc1)C[C@H](O)CNS(=O)(=O)c1ccc([N+](=O)[O-])cc1` (some centres unmarked) [Compound B13A], at VIPR2 [1] (Batch 2), the inhibition at 0.5 µM came to 3.3%, the inhibition at 1 µM turned out to be 7.4% and the inhibition at 5 µM stood at 10.2%. Further, at VIPR2 [2] (Batch 2), the inhibition at 0.5 µM came out at 8.8%, the inhibition at 1 µM was 12.4% and the inhibition at 5 µM was found to be 17.5%. In addition, the “% Activity” value on VIPR2 [3] amounted to 13.85%.
For `C#CCCCC(=O)NC[C@@H](O)C[C@@H](Cc1ccccc1)C(=O)N[C@H]1c2ccccc2C[C@H]1O` [Compound A23], on VIPR2 [1] (Batch 1), the inhibition at 0.5 µM worked out at 45.8%, the inhibition at 1 µM amounted to 16.1% and the inhibition at 5 µM came to 25.8%. For the same compound, at VIPR2 [2] (Batch 1), the inhibition at 0.5 µM is 20.8%, the inhibition at 1 µM was determined as 20.2% and the inhibition at 5 µM amounted to 26.6%. For the same compound, the “% Activity” value at VIPR2 [3] is 26.2%.
For `O=C(N[C@H]1c2ccccc2C[C@H]1O)[C@H](Cc1ccccc1)C[C@H](O)CNS(=O)(=O)c1ccccc1F` [T], at VIPR2 [1] (Batch 1), the inhibition at 0.5 µM was 5.3%, the inhibition at 1 µM came to 28.3% and the inhibition at 5 µM was determined as 52%. Also, on VIPR2 [2] (Batch 1), the inhibition at 0.5 µM turned out to be 28.6%, the inhibition at 1 µM was 22.3% and the inhibition at 5 µM turned out to be 28.3%. The “% Activity” value at VIPR2 [3] stood at 40.15%.
Turning to `CCC(=O)Nc1ccc(S(=O)(=O)NC[C@@H](O)C[C@@H](Cc2ccccc2)C(=O)N[C@H]2c3ccccc3C[C@H]2O)cc1` [Compound X091], at VIPR2 [1] (Batch 3), the inhibition at 0.5 µM was -3.4%, the inhibition at 1 µM was -1.2% and the inhibition at 5 µM was -10.4%. Moreover, on VIPR2 [2] (Batch 3), the inhibition at 0.5 µM turned out to be 0.6%, the inhibition at 1 µM came to 1.5% and the inhibition at 5 µM was determined as 26.9%. The “% Activity” value on VIPR2 [3] stood at 8.25%.
`Cc1ccc([N+](=O)[O-])cc1S(=O)(=O)NC[C@@H](O)C[C@@H](Cc1ccccc1)C(=O)N[C@H]1c2ccccc2C[C@H]1O` [P]: on VIPR2 [1] (Batch 1), the inhibition at 0.5 µM is -12%, the inhibition at 1 µM was -3.8% and the inhibition at 5 µM was -0.6%. For the same compound, on VIPR2 [2] (Batch 1), the inhibition at 0.5 µM stood at 10.9%, the inhibition at 1 µM was determined as 13.6% and the inhibition at 5 µM was determined as 18.3%. Further, the “% Activity” value at VIPR2 [3] was 8.85%.
Take `O=C(NN1CCCCC1)[C@H](Cc1ccccc1)C[C@H](O)CNS(=O)(=O)c1ccc([N+](=O)[O-])cc1` [Compound B6A]: at VIPR2 [1] (Batch 2), the inhibition at 0.5 µM is -6.4%, the inhibition at 1 µM turned out to be 4.4% and the inhibition at 5 µM is 6.5%. In addition, at VIPR2 [2] (Batch 2), the inhibition at 0.5 µM worked out at 6.3%, the inhibition at 1 µM amounted to 7.1% and the inhibition at 5 µM turned out to be 4.4%. Moreover, at VIPR2 [3], the “% Activity” value amounted to 5.45%.
With `O=C(NC1CCCCCC1)[C@H](Cc1ccccc1)C[C@H](O)CNS(=O)(=O)c1ccc([N+](=O)[O-])cc1` [Compound B5A], at VIPR2 [1] (Batch 2), the inhibition at 0.5 µM was -19.2%, the inhibition at 1 µM is -5.4% and the inhibition at 5 µM was -2.4%. In addition, at VIPR2 [2] (Batch 2), the inhibition at 0.5 µM is 1.7%, the inhibition at 1 µM amounted to 5.6% and the inhibition at 5 µM was 12.9%. The “% Activity” value on VIPR2 [3] stood at 5.25%.
`O=C(NCc1ccc(F)cc1F)[C@H](Cc1ccccc1)C[C@H](O)CNS(=O)(=O)c1ccc([N+](=O)[O-])cc1` [Compound B14A]: at VIPR2 [1] (Batch 2), the inhibition at 0.5 µM is -19.5%, the inhibition at 1 µM was -13.3% and the inhibition at 5 µM turned out to be 30.8%. At VIPR2 [2] (Batch 2), the inhibition at 0.5 µM was determined as 2.4%, the inhibition at 1 µM came to 7.2% and the inhibition at 5 µM turned out to be 23.6%. Besides, at VIPR2 [3], the “% Activity” value is 27.2000%.
On to `CC(C)C(=O)Nc1ccc(S(=O)(=O)NC[C@@H](O)C[C@@H](Cc2ccccc2)C(=O)N[C@H]2c3ccccc3C[C@H]2O)cc1` [Compound X092], for which, at VIPR2 [1] (Batch 3), the inhibition at 0.5 µM was determined as 5.3%, the inhibition at 1 µM is 5.1% and the inhibition at 5 µM was -7.5%. Moreover, at VIPR2 [2] (Batch 3), the inhibition at 0.5 µM was determined as 1%, the inhibition at 1 µM worked out at 6.9% and the inhibition at 5 µM amounted to 16.7%. Moreover, the “% Activity” value at VIPR2 [3] was 4.6%.
In the case of `O=C(CCCCl)NC[C@@H](O)C[C@@H](Cc1ccccc1)C(=O)N[C@H]1c2ccccc2C[C@H]1O` [Compound A22], at VIPR2 [1] (Batch 1), the inhibition at 0.5 µM is 19.2%, the inhibition at 1 µM stood at 24.3% and the inhibition at 5 µM was 21.1%. At VIPR2 [2] (Batch 1), the inhibition at 0.5 µM is 16.4%, the inhibition at 1 µM turned out to be 18.2% and the inhibition at 5 µM was 15.9%. Besides, the “% Activity” value on VIPR2 [3] is given as 18.5%.
`O=C(NC1Cc2ccccc2C1)[C@H](Cc1ccccc1)C[C@H](O)CNS(=O)(=O)c1ccc([N+](=O)[O-])cc1` [Compound B2A]: at VIPR2 [1] (Batch 2), the inhibition at 0.5 µM is -2.7%, the inhibition at 1 µM was 8.1% and the inhibition at 5 µM amounted to 9.8%. For the same compound, at VIPR2 [2] (Batch 2), the inhibition at 0.5 µM was 5.7%, the inhibition at 1 µM amounted to 7.5% and the inhibition at 5 µM came to 16%. Also, at VIPR2 [3], the “% Activity” value was found to be 12.9%.
Regarding `C[C@H](CC(C)(C)C)NC(=O)[C@@H](Cc1ccccc1)C[C@H](O)CNS(=O)(=O)c1ccc([N+](=O)[O-])cc1` [Compound B10B], on VIPR2 [1] (Batch 2), the inhibition at 0.5 µM amounted to 36.8%, the inhibition at 1 µM was 27.9% and the inhibition at 5 µM is 20.2%. Moreover, on VIPR2 [2] (Batch 2), the inhibition at 0.5 µM came to 6.5%, the inhibition at 1 µM was determined as 19.6% and the inhibition at 5 µM is 7.4%. Further, the “% Activity” value on VIPR2 [3] is reported as 13.8000%.
For `NC(=O)[C@@H](Cc1ccccc1)C[C@H](O)CNS(=O)(=O)c1ccc([N+](=O)[O-])cc1` [Compound B12B], at VIPR2 [1] (Batch 2), the inhibition at 0.5 µM was determined as 3.5%, the inhibition at 1 µM was -9.8% and the inhibition at 5 µM amounted to 7%. Further, at VIPR2 [2] (Batch 2), the inhibition at 0.5 µM was 14.6%, the inhibition at 1 µM was found to be 12.6% and the inhibition at 5 µM came out at 9.7%. Also, the “% Activity” value at VIPR2 [3] worked out at 8.35%.
Regarding `O=C(NC[C@@H](O)C[C@@H](Cc1ccccc1)C(=O)N[C@H]1c2ccccc2C[C@H]1O)C1CC1` [Compound A1], on VIPR2 [1] (Batch 1), the inhibition at 0.5 µM is -3.8%, the inhibition at 1 µM came out at 37% and the inhibition at 5 µM is 29.1%. Further, at VIPR2 [2] (Batch 1), the inhibition at 0.5 µM came to 21%, the inhibition at 1 µM worked out at 21.1% and the inhibition at 5 µM was 24%. Also, on VIPR2 [3], the “% Activity” value was determined as 26.55%.
